Test [1] deals with Serine/threonine-protein kinase Nek6 (Homo sapiens) (UniProt Q9HC98). The test is described as follows: Selectivity interaction (ProQinase) EUB0000171b NEK6.
In test [2] the target is Mitogen-activated protein kinase kinase kinase 4 (Homo sapiens) (UniProt Q9Y6R4). The test is described as follows: Selectivity interaction (Ambit KINOMEscan and KiNATiv profiling in Jurkat cells) EUB0000090b MAP3K4. It counts as cell-based. Particulars: at 1 µM.
For test [3], the system named is Proto-oncogene tyrosine-protein kinase receptor Ret (Homo sapiens), P07949 [M918T]. The note with it: at 10 µM.
Proto-oncogene tyrosine-protein kinase receptor Ret (Homo sapiens), P07949 [M918T], sequence (P07949 whole entry M918T): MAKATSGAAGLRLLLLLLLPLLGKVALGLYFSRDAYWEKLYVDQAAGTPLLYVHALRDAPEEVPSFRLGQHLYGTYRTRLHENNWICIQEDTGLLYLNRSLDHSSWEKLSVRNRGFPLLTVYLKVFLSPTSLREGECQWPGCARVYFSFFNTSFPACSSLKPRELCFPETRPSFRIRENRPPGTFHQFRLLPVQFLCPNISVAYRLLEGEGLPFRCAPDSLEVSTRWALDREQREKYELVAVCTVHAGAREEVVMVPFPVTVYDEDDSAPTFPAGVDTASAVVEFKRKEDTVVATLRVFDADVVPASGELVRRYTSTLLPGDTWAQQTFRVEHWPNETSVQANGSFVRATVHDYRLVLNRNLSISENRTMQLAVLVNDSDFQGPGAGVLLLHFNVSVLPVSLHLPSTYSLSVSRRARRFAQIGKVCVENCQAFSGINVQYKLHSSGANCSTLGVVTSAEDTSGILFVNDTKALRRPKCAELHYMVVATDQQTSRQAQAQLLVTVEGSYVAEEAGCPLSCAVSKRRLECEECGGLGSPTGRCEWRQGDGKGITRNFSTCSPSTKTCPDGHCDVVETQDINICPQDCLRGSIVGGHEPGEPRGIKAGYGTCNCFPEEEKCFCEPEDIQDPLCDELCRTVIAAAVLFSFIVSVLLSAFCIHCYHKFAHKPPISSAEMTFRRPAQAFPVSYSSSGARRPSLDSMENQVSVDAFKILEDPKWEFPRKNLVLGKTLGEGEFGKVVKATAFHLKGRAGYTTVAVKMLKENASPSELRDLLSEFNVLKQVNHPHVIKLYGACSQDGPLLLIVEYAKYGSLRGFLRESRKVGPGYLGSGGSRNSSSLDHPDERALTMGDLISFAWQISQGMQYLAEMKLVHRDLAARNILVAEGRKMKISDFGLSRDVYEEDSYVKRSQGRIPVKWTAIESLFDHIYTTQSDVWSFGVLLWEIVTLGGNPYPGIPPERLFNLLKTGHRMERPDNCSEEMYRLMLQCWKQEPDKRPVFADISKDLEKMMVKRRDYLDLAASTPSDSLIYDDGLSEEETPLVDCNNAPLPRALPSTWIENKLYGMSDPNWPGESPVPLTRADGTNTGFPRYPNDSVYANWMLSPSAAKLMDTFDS
The target of test [4] is T1, Mitogen-activated protein kinase 15 (Homo sapiens) (UniProt Q8TD08).
T1 sequence (whole entry): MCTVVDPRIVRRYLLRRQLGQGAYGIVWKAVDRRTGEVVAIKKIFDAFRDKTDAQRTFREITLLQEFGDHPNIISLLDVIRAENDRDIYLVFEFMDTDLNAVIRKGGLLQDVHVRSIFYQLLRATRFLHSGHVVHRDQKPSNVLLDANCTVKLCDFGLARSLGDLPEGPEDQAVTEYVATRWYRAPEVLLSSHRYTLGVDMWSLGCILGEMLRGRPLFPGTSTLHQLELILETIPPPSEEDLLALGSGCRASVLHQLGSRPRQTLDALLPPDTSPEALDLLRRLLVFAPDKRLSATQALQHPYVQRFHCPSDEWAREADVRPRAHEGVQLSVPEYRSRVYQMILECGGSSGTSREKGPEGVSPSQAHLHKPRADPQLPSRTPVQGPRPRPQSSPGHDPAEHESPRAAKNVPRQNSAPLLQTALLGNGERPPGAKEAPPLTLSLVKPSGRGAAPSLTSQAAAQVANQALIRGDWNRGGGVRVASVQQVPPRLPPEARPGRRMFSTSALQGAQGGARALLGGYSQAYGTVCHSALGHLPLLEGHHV
The test is described as follows: Selectivity interaction (KinomeScan (DiscoverX)) EUB0001079a MAPK15. Particulars: at 1 µM.

In test [5] the target is Angiopoietin-1 receptor (Homo sapiens) (UniProt Q02763). The test is described as follows: Selectivity interaction (Millipore kinase profiler) EUB0000124b TEK. Particulars: at 10 µM.
Test [6] has as its target Interferon-induced, double-stranded RNA-activated protein kinase (Homo sapiens) (UniProt P19525). Kind of test: Selectivity interaction (KinomeScan (DiscoverX)) EUB0000666a EIF2AK2. The note with it: at 10 µM.
Test [7] has as its target T2, Serine/threonine-protein kinase ULK1 (Homo sapiens) (UniProt O75385).
T2 sequence (whole entry): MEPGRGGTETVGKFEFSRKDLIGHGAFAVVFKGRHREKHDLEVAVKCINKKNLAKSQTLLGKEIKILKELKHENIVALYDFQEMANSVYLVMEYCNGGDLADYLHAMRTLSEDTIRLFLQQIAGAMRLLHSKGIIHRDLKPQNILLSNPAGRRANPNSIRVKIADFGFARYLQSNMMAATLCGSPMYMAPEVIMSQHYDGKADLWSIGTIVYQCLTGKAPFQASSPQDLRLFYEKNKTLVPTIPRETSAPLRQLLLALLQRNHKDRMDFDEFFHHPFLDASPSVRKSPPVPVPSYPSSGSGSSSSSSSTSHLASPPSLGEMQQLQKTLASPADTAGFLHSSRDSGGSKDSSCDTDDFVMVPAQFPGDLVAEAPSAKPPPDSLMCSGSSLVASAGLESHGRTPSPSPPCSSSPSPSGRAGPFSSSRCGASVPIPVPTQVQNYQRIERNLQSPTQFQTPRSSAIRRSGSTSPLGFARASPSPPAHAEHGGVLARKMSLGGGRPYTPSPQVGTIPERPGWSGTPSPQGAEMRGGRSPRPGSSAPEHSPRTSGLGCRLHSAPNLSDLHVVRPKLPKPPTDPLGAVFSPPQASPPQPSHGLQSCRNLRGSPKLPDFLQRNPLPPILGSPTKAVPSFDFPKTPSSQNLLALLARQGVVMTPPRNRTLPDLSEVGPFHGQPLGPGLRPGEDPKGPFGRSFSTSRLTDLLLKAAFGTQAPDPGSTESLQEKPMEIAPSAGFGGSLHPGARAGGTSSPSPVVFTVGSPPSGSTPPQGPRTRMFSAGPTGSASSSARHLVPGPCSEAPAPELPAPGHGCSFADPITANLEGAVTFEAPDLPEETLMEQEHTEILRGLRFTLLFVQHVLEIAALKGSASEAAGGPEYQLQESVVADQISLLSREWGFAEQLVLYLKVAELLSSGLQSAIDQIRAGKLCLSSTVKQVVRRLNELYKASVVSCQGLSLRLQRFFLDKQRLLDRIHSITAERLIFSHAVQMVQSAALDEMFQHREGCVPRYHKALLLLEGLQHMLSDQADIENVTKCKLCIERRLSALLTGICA
The test is described as follows: Selectivity interaction (ActivX KiNativ screen (kinase selectivity in THP-1 cell lysates)) EUB0000639a ULK1. It counts as subcellular. The note with it: lysate, at 0.01 µM.

Test [8] has as its target T3, Cytoplasmic tyrosine-protein kinase BMX (Homo sapiens) (UniProt P51813).
T3 sequence (whole entry): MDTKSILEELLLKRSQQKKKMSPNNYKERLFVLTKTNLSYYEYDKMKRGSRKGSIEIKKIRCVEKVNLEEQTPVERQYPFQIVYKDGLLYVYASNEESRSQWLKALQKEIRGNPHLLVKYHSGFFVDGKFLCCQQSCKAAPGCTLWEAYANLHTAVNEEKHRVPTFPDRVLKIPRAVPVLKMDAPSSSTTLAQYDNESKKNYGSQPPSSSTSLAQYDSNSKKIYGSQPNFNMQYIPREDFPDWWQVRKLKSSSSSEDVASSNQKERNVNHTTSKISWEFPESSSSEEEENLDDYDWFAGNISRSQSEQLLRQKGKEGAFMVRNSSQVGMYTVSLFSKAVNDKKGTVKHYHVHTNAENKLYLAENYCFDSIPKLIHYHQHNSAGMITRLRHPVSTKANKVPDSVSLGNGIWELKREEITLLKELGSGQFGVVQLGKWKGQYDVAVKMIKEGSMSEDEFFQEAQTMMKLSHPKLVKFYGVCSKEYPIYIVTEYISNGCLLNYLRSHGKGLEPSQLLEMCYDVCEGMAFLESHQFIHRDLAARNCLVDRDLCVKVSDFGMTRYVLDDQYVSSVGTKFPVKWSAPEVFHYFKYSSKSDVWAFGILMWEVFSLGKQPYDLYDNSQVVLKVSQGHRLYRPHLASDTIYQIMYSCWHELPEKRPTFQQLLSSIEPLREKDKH
The test is described as follows: Selectivity interaction (Kinase panel (DSF assay)) EUB0001559a BMX.

Test [9] has as its target Tyrosine-protein kinase Fyn (Homo sapiens) (UniProt P06241). The test is described as follows: Selectivity interaction (KinomeScan (DiscoverX)) EUB0001619a FYN. The note with it: at 1 µM.
Test [10] addresses Mitogen-activated protein kinase 8 (Homo sapiens, UniProt P45983). The test is described as follows: Selectivity interaction (Kinase panel (KiNativ target engagement assay in Jurkat cells)) EUB0001635a MAPK8. The note with it: at 1 µM. It counts as cell-based.

The structures appear in SMILES notation.

Serine/threonine-protein kinase Nek6 (Homo sapiens), sequence (Q9HC98 whole entry): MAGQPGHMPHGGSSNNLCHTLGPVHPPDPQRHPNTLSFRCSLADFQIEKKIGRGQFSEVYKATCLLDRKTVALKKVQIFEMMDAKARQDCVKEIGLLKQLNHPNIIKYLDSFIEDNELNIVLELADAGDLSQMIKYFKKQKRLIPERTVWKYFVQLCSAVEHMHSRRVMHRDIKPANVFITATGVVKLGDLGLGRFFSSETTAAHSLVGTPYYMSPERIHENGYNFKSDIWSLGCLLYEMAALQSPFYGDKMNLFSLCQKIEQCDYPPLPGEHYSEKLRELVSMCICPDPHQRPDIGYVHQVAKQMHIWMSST
Interferon-induced, double-stranded RNA-activated protein kinase (Homo sapiens), sequence (P19525 whole entry): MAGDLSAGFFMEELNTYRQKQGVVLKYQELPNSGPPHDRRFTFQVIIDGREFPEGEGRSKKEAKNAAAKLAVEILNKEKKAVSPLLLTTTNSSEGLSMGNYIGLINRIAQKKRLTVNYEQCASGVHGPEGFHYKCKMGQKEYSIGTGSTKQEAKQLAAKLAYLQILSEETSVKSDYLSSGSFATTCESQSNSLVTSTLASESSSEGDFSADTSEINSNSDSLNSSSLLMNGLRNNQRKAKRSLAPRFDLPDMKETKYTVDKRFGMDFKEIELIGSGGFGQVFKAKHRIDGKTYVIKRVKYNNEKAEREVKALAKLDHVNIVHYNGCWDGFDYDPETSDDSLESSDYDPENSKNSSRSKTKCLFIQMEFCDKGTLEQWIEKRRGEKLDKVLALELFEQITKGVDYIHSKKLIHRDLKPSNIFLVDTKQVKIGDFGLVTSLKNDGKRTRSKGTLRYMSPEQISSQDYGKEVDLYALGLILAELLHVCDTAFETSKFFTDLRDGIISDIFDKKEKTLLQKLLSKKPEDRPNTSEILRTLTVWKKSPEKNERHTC
Mitogen-activated protein kinase 8, sequence (P45983 whole entry): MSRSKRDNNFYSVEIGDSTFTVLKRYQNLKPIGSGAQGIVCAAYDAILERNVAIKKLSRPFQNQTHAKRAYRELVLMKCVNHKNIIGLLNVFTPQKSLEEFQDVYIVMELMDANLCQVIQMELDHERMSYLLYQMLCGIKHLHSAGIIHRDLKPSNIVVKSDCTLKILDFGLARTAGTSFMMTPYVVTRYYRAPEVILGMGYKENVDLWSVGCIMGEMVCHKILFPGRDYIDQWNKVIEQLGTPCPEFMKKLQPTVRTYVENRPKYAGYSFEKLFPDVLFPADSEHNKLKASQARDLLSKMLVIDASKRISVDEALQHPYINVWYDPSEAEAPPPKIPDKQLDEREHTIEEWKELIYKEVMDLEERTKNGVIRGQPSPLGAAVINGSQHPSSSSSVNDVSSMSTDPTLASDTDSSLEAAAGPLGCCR
Tyrosine-protein kinase Fyn (Homo sapiens), sequence (P06241 2-537 limits assumed): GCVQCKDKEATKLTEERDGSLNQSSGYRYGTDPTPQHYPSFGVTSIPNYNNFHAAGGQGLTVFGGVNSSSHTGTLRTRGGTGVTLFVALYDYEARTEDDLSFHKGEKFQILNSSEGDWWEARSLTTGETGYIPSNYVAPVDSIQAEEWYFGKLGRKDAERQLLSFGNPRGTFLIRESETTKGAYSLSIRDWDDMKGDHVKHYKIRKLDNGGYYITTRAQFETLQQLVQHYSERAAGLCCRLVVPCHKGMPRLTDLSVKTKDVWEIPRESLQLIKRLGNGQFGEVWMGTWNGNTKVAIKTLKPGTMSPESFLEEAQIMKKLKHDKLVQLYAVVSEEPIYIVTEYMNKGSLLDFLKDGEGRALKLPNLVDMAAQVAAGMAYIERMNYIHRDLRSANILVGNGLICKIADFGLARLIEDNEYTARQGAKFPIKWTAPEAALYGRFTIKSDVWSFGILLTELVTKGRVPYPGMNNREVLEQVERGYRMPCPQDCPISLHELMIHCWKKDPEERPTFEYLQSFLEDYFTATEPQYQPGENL
Mitogen-activated protein kinase kinase kinase 4 (Homo sapiens), sequence (Q9Y6R4 whole entry): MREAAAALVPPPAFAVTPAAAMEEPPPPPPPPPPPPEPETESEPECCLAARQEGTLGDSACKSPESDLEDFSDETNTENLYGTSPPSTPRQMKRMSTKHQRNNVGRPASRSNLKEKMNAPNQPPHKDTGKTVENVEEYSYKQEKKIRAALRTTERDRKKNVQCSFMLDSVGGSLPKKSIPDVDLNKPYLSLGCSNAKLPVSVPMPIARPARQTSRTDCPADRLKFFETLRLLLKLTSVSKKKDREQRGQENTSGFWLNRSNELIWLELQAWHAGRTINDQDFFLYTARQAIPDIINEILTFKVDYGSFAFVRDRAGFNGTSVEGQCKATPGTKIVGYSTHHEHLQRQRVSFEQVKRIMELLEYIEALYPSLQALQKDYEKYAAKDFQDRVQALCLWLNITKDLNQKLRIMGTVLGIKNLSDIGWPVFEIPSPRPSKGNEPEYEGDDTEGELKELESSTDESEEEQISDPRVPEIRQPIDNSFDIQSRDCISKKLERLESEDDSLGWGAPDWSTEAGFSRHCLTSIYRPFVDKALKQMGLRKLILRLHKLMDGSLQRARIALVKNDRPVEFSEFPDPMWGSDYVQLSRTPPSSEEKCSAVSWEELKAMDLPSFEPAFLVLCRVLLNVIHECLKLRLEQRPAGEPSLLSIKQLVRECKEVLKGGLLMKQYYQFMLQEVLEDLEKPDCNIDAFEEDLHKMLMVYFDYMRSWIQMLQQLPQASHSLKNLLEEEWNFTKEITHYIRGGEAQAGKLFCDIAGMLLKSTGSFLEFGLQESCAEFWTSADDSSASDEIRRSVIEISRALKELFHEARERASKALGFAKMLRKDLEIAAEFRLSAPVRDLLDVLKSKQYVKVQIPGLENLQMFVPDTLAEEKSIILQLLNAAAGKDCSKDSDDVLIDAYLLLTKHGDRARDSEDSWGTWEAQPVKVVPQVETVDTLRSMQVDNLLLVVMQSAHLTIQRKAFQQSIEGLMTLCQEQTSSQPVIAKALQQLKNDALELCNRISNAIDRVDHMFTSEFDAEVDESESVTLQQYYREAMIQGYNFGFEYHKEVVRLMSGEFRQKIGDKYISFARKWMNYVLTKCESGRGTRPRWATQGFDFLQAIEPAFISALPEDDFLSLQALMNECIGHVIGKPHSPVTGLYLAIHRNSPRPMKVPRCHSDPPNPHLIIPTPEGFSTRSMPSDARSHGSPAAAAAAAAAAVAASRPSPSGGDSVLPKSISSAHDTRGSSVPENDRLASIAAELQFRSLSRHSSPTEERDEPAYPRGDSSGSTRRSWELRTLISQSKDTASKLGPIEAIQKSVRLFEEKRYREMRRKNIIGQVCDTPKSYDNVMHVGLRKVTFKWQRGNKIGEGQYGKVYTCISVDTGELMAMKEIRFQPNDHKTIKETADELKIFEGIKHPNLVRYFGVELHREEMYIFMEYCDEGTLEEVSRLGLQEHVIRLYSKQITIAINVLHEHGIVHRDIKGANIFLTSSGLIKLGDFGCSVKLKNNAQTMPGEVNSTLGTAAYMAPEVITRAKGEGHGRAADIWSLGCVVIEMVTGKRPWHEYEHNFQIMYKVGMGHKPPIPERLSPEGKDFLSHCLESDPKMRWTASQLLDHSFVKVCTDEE

Consider `C=CC(=O)Nc1cccc(C(=O)Nc2ccc(Nc3cc(-c4[nH]c(SC)nc4C)ccn3)cc2)c1`, for which the % of control in test [1] (at 1 µM) was determined as 91%; in [1] (at 5 µM), 92%.

For the compound `CN(C)C/C=C/C(=O)Nc1ccc(C(=O)N2CCCC(Nc3ncc(Cl)c(-c4c[nH]c5ccccc45)n3)C2)cc1` (stereo unspecified), in test [2], the % of control is 64%.

Consider `CCN(CC)CCCCNc1ncc2cc(-c3cc(OC)cc(OC)c3)c(NC(=O)NC(C)(C)C)nc2n1`, for which the % of control in test [3] turned out to be 100%.

For `Nc1cnc(N2CCc3cc(S(=O)(=O)Nc4c(F)cc(Cl)cc4F)cc(N4CCCC4=O)c32)nc1` [TP-020n], the % of control in test [4] amounted to 84%.

Take `CC(=O)Nc1cccc(-n2c(=O)n(C3CC3)c(=O)c3c(Nc4ccc(I)cc4F)n(C)c(=O)c(C)c32)c1`: the % of control in test [5] was 103%.

Turning to `O=C(NOC[C@H](O)CO)c1ccc(F)c(F)c1Nc1ccc(I)cc1F`, in test [6], the % of control was found to be 100%.

For the compound `CC[C@@H]1[C@H](F)C(=O)N[C@@H]1COc1nccc2cc(C(N)=O)c(OC)cc12` [ZIMLOVISERTIB], the % of inhibition in [7] is -5.9%.

For `CN(C(=O)c1cnn2cccnc12)c1cc2c(cc1N1CCOCC1)C(=O)N(C[C@@H](F)C(C)(C)O)C2`, the dTM in test [8] worked out at 0.1 K.

`N#Cc1cccc(-c2c[nH]c3ncnc(N4CCOCC4)c23)c1`: the % of control in [9] came out at 86%.

Consider `C=CC(=O)Nc1ccc(C(=O)Nc2[nH]nc3c2CN(C(=O)N[C@H](CN(C)C)c2ccccc2)C3(C)C)cc1`, for which the % of engagement in test [10] was -7.2%.

The values are drawn from ChEMBL document CHEMBL5465560, “Selectivity Literature for EUbOPEN Chemogenomic Library” (2024).
